From publication PMC6151437, “Antibacterial Synthetic Peptides Derived from Bovine Lactoferricin Exhibit Cytotoxic Effect against MDA-MB-468 and MDA-MB-231 Breast Cancer Cell Lines” (Molecules : A Journal of Synthetic Chemistry and Natural …, 2017)
Like-named read-outs stand apart in the source and are kept apart here. Bridge positions count the residues as written; N and C are the ends. Square brackets hold non-standard residues; d marks the D form. Ends that are not written are not given here. Peptide text beside a SMILES is read from it. I, II: the chains in the order shown. Ahx = NCCCCCC(=O)O

Assays:
[1] = tested on: E. coli ATCC 11775; type: cell-based
Experimental: (§1) The minimal inhibitory concentration (MIC) was determined using a microdilution assay. In brief, bacterial strains were incubated for 18 to 24 h at 37 °C in an Muller Hinton broth (MHB) until an optical density of 0.15 to 0.30 (620 nm) was obtained. 90 µL of MHB was mixed with 90 µL of peptide (440 µg/mL), and using a 96-well microtiter plate peptide, serial dilution (200, 100, 50, 25, 12.5, and 6.2 µg/mL) was performed. 10 µL of inoculum (2 × 10^6 CFU/mL) was added to each well. Final volume in each well was 100 µL. Then they were incubated for 24 h at 37 °C, and the absorbance at 620 nm was measured using an Asys Expert Plus ELISA reader. For determining the minimum bactericidal concentration (MBC), a small sample was taken from each well using an inoculation loop, which was then spread on MHA plates and incubated overnight at 37 °C. […] Each of these tests was performed twice (n = 2).

[2] = tested on: E. coli ATCC 25922; type: cell-based
Experimental: as §1

[3] = type: cell-based, human; settings: human
Experimental: (§2) Cytotoxicity assays were performed as previously described. Briefly, breast cancer cell lines (100 µL; 2.5 × 10^3 cells/well) were seeded in 96-well flat bottom tissue culture treated plates and were incubated at 37 °C in a 10% CO2 humidified atmosphere for 24 h, allowing for cell adhesion. Then the media was removed, then 100 µL of FBS (5%) and 100 µL of peptide were added. The peptide final concentration was ranging from 200 to 6.25 µg/mL and the final FBS concentration was 2.5%. Plates were incubated 2 h at 37 °C in a 10% CO2 humidified atmosphere (physiologic pH). Negative controls included medium and water. All controls were prepared in triplicate. Cell viability was determined using the MTT assay after 2 h. For this, 10 µL of MTT solution (5 mg/mL) was added to each well, and the plates were incubated for 2 h at 37 °C. Formazan crystals were clarified by centrifugation, the supernatant was discarded, and the crystals were dissolved in DMSO (100 µL). Absorbance (570 nm) was registered on a Bio-Rad 680 microplate reader. (n = 3).

[4] = type: cell-based, human; settings: human; remark: listed apart in the source
Experimental: as §2

[5] = tested on: human gastric cancer cell line AGS; settings: cited from earlier work
[6] = E. coli ATCC 25922, microdilution in MHB, 24 h at 37 °C, absorbance 620 nm, n = 2
[7] = E. coli ATCC 11775, microdilution in MHB, 24 h at 37 °C, absorbance 620 nm, n = 2
[8] = E. coli ATCC 11775, plated on MHA overnight at 37 °C, no bacterial growth, n = 2
[9] = E. coli ATCC 25922, plated on MHA overnight at 37 °C, no bacterial growth, n = 2

| Compound | Antibacterial Effect MIC ([1]; E. coli ATCC 11775, value in parentheses, microdilution in MHB, 24 h at 37 °C, n = 2) | Antibacterial Effect MBC ([1]; E. coli ATCC 11775, value in parentheses, plated on MHA overnight at 37 °C, n = 2) | Antibacterial Effect MIC ([2]; ATCC 25922, 24 h) | Antibacterial Effect MIC [2, 6] | Antibacterial Effect MBC ([2]; E. coli ATCC 25922, value in parentheses, plated on MHA overnight at 37 °C, n = 2) | Antibacterial Effect MBC ([1]; ATCC 11775) | Antibacterial Effect MIC ([1]; ATCC 11775, 24 h) | Antibacterial Effect MIC [1, 7] | Antibacterial Effect MBC [1, 8] | Antibacterial Effect MBC ([2]; ATCC 25922) | Antibacterial Effect MBC [2, 9] | IC50 at 2 h [3] | IC50 at 2 h [4] | IC50 [5] |
| --- | --- | --- | --- | --- | --- | --- | --- | --- | --- | --- | --- | --- | --- | --- |
| N=C(N)NCCC[C@@H]1NC(=O)[C@H](Cc2c[nH]c3ccccc23)NC(=O)[C@H](CCC(N)=O)NC(=O)[C@H](Cc2c[nH]c3ccccc23)NC(=O)[C@H](CCCNC(=N)N)NC(=O)[C@H](CCCNC(=N)N)NC(=O)[C@@H](N)CSSC[C@@H](C(N)=O)NC(=O)CCCCCNC1=O [LfcinB (20–25)cyc] (H-CRRWQWR[Ahx]C-NH2; disulfide 1-9) | 153 µM | 153 µM | 77 µM | 100 µg/mL | > 153 µM | – | – | – | – | – | – | – | – | – |
| CSCC[C@H](NC(=O)[C@H](CCCNC(=N)N)NC(=O)[C@H](Cc1c[nH]c2ccccc12)NC(=O)[C@H](CCC(N)=O)NC(=O)[C@H](Cc1c[nH]c2ccccc12)NC(=O)[C@H](CCCNC(=N)N)NC(=O)[C@@H](N)CCCNC(=N)N)C(=O)N[C@@H](CCCCN)C(=O)N[C@@H](CCCCN)C(=O)N[C@@H](CC(C)C)C(=O)NCC(=O)NCCCC[C@H](NC(=O)CNC(=O)[C@H](CC(C)C)NC(=O)[C@H](CCCCN)NC(=O)[C@H](CCCCN)NC(=O)[C@H](CCSC)NC(=O)[C@H](CCCNC(=N)N)NC(=O)[C@H](Cc1c[nH]c2ccccc12)NC(=O)[C@H](CCC(N)=O)NC(=O)[C@H](Cc1c[nH]c2ccccc12)NC(=O)[C@H](CCCNC(=N)N)NC(=O)[C@@H](N)CCCNC(=N)N)C(=O)NCCCCCC(N)=O [LfcinB (20–30)2] (I: H-RRWQWRMKKLGK[Ahx]-NH2 / II: H-RRWQWRMKKLG; amide I:12-II:C) | – | – | 30 µM | 100 µg/mL | – | 60 µM | 60 µM | 200 µg/mL | 200 µg/mL | 60 µM | 200 µg/mL | – | – | – |
| CSCC[C@@H]1NC(=O)[C@H](CCCNC(=N)N)NC(=O)[C@H](Cc2c[nH]c3ccccc23)NC(=O)[C@H](CCC(N)=O)NC(=O)[C@H](Cc2c[nH]c3ccccc23)NC(=O)[C@H](CCCNC(=N)N)NC(=O)[C@H](CCCNC(=N)N)NC(=O)[C@@H](N)CSSC[C@@H](C(N)=O)NC(=O)CCCCCNC(=O)CNC(=O)[C@H](CC(C)C)NC(=O)[C@H](CCCCN)NC(=O)[C@H](CCCCN)NC1=O [LfcinB (20–30)cyc] (H-CRRWQWRMKKLG[Ahx]C-NH2; disulfide 1-14) | – | – | 200 µg/mL | – | – | 200 µg/mL | 200 µg/mL | – | – | 200 µg/mL | – | – | – | – |
| CSCC[C@H](NC(=O)[C@H](CCCNC(=N)N)NC(=O)[C@H](Cc1c[nH]c2ccccc12)NC(=O)[C@H](CCC(N)=O)NC(=O)[C@H](Cc1c[nH]c2ccccc12)NC(=O)[C@H](CCCNC(=N)N)NC(=O)[C@H](CCCNC(=N)N)NC(=O)[C@H](C)NC(=O)[C@H](CCCCN)NC(=O)[C@@H](N)Cc1ccccc1)C(=O)N[C@@H](CCCCN)C(=O)N[C@@H](CCCCN)C(=O)N[C@@H](CC(C)C)C(=O)NCC(=O)N[C@@H](C)C(=O)NCCCC[C@H](NC(=O)[C@H](C)NC(=O)CNC(=O)[C@H](CC(C)C)NC(=O)[C@H](CCCCN)NC(=O)[C@H](CCCCN)NC(=O)[C@H](CCSC)NC(=O)[C@H](CCCNC(=N)N)NC(=O)[C@H](Cc1c[nH]c2ccccc12)NC(=O)[C@H](CCC(N)=O)NC(=O)[C@H](Cc1c[nH]c2ccccc12)NC(=O)[C@H](CCCNC(=N)N)NC(=O)[C@H](CCCNC(=N)N)NC(=O)[C@H](C)NC(=O)[C@H](CCCCN)NC(=O)[C@@H](N)Cc1ccccc1)C(=O)NCCCCCC(N)=O [[Ala^19]-LfcinB (17–31)2] (I: H-FKARRWQWRMKKLGAK[Ahx]-NH2 / II: H-FKARRWQWRMKKLGA; amide I:16-II:C) | – | – | 24 µM | 100 µg/mL | – | > 48 µM | > 48 µM | > 200 µg/mL | > 200 µg/mL | 24 µM | 100 µg/mL | – | – | – |
| CSCC[C@H](NC(=O)[C@H](CCCNC(=N)N)NC(=O)[C@H](Cc1c[nH]c2ccccc12)NC(=O)[C@H](CCC(N)=O)NC(=O)[C@H](Cc1c[nH]c2ccccc12)NC(=O)[C@H](CCCNC(=N)N)NC(=O)[C@H](CCCNC(=N)N)NC(=O)[C@H](C)NC(=O)[C@H](CCCCN)NC(=O)[C@@H](N)Cc1ccccc1)C(=O)N[C@@H](CCCCN)C(=O)N[C@@H](CCCCN)C(=O)N[C@@H](CC(C)C)C(=O)NCC(=O)N[C@@H](C)C(=O)O [[Ala^19]-LfcinB (17–31)] | – | – | 102 µM | – | – | 102 µM | > 102 µM | – | – | 102 µM | – | > 102 µM | > 102 µM | – |
| CSCC[C@@H]1NC(=O)[C@H](CCCNC(=N)N)NC(=O)[C@H](Cc2c[nH]c3ccccc23)NC(=O)[C@H](CCC(N)=O)NC(=O)[C@H](Cc2c[nH]c3ccccc23)NC(=O)[C@H](CCCNC(=N)N)NC(=O)[C@H](CCCNC(=N)N)NC(=O)[C@H](C)NC(=O)[C@H](CCCCN)NC(=O)[C@H](Cc2ccccc2)NC(=O)[C@@H](N)CSSC[C@@H](C(N)=O)NC(=O)CCCCCNC(=O)[C@H](C)NC(=O)CNC(=O)[C@H](CC(C)C)NC(=O)[C@H](CCCCN)NC(=O)[C@H](CCCCN)NC1=O [[Ala^19]-LfcinB (17–31)cyc] (H-CFKARRWQWRMKKLGA[Ahx]C-NH2; disulfide 1-18) | – | – | 88 µM | 200 µg/mL | – | > 88 µM | > 88 µM | > 200 µg/mL | > 200 µg/mL | 88 µM | 200 µg/mL | > 88 µM | > 88 µM | – |
| I: H-RRWQWRMKKLGK[Ahx]C-NH2 / II: H-RRWQWRMKKLGK[Ahx]C-NH2 / III: H-RRWQWRMKKLG / IV: H-RRWQWRMKKLG (amide I:12-III:C, II:12-IV:C; disulfide I:14-II:14) [LfcinB (20–30)4] | – | – | 15 µM | 200 µg/mL | – | 15 µM | 15 µM | 200 µg/mL | 200 µg/mL | 15 µM | 200 µg/mL | – | – | – |
| RRWQWRMKKLG-NH2 [LfcinB (20–30)] | – | – | 130 µM | – | – | 130 µM | 130 µM | – | – | 130 µM | – | > 130 µM | > 130 µM | > 500 µM |
